# In publication PMC12029069, “Synthesis and Evaluation of Antitumor and Anti-Angiogenesis Activity of Pyrone- or Pyridone-Embedded Analogs of Cortistatin A” (Marine Drugs, 2025):
# Where two headings read alike, the source gives them in different places. Marks after values point to notes of the source that are not given here.
# Legend:
# [1] = tested on: HUVECs; assay: Antiproliferative activity against HUVECs (WST-8, 72 h); format: cell-based, human; settings: for IC50: 72 h, WST-8, average of triplicate; for S.I. (selective index: IC50 against KB3-1 cells/IC50 against HUVECs): KB3-1 over HUVECs
# Method: HUVECs (5 × 10^5 cells/vial) were purchased from Kurabo Inc. and grown in HuMedia-EG2 medium with growth supplements (Kurabo, Osaka, Japan). HUVECs in the culture medium were plated into each well of 96-well plates (2 × 10^3 cells/well/100 µL). After 24 h, the serially diluted compounds as a 5% DMSO/EtOH or EtOH solution (1 µL) were added, and then the plates were incubated for an additional 72 h in a humidified atmosphere of 5% CO2 at 37 °C. The cell proliferation was detected by WST-8 colorimetric reagent (Nacalai Tesque, Inc., Kyoto, Japan). The IC50 value was determined by linear interpolation from the growth inhibition curve, and the averaged IC50 values of the triplicate experiment are shown in Table 1.
# [2] = tested on: human epidermoid carcinoma KB3-1 cells; assay: Antiproliferative activity against KB3-1 cancer cells (WST-8, 72 h); format: cell-based
# Method: KB3-1 cells were cultured in RPMI-1640 medium supplemented with 10% heat-inactivated fetal bovine serum and kanamycin (50 μg/mL). Cells were plated into 96-well microplates at 2 × 10^3 cells/100 μL assay medium/well, and various concentrations of test compounds were added to each well as a 5% DMSO/EtOH or EtOH solution (1 µL). The plates were incubated at 37 °C in a humidified atmosphere of 5% CO2 for 72 h, and cell proliferation was determined by WST-8 colorimetric assay as above, and the averaged IC50 values of the triplicate experiment are shown in Table 1.
# [3] = tested on: HUVECs; settings: cited from earlier work; for S.I. (selective index: IC50 against KB3-1 cells/IC50 against HUVECs): KB3-1 over HUVECs
# [4] = tested on: human epidermoid carcinoma KB3-1 cells; settings: cited from earlier work
# [5] = tested on: CDK8; settings: ref [37]; cited from earlier work
# [6] = Body weight of mice during the Matrigel plug assay (acute toxicity); format: in vivo; settings: mean ± SD
# Method: The body weight of mice of the control group (bFGF (+) or (−)) and the groups treated with the testing compound (0.1, 0.3, and 1 mg/kg) at day 1 and day 9 were measured. The mean activities of aspartate aminotransferase (AST) and alanine aminotransferase (ALT) in mouse serum at day 10 of control group and the 1 mg/kg treated group were measured using the LabAssay^TM AST or ALT kit (FUJIFILM Wako Pure Chemical Co., Osaka, Japan), respectively.
# [7] = tested on: new blood vessels in the Matrigel plug induced by bFGF; assay: In vivo Matrigel plug assay (bFGF-induced angiogenesis, hemoglobin content); parameters: species or system mice; settings: 0.3 mg/kg oral, every other day (5 times), day 10, mean ± SD
# Method: All animal procedures were approved by the Committee on Animal Experimentation of Osaka University (Approval number: DouYaku 24-8-1). The measurements of in vivo angiogenesis using Matrigel plugs were performed as described previously. An aliquot (250 µL) of Matrigel containing 200 ng/mL of bFGF and 100 U/mL of heparin was injected subcutaneously into the ventral side of female ddY mice (6 weeks old, N = 4, Japan SLC, Inc., Shizuoka, Japan). Then, analog 19 was orally administered on every other day (total 5 times: day 1, 3, 5, 7, and 9) as a suspension in 1% sodium carboxymethyl cellulose (CMC-Na). At day 10, the Matrigel plugs were photographed and removed. The levels of new vessels were quantified by measuring the hemoglobin of the Matrigel plug (µg hemoglobin/mg Matrigel) with the Drabkin reagent Kit.
# [8] = tested on: Murine sarcoma S180 cells; assay: In vivo antitumor effect in mice inoculated with sarcoma S180 cells; settings: every other day for 14 days, S180 s.c. in ddY mice
# Source text: Murine sarcoma S180 cells (1 × 10^6 cells/body) were implanted subcutaneously into the right ventral flank of female ddY mice (6 weeks old). After one week from implantation, analog 19 was orally administered on every other day for 14 days (total 7 times) as a suspension in 1% CMC-Na. Then, the tumor was isolated and weighed to calculate the inhibition ratio. The control group and the group treated with the testing compound consisted of six mice each in this study.
# [9] = Hepatic toxicity: AST and ALT activities in mouse serum; format: in vivo, mice; settings: 1 mg/kg oral treatment group, day 9
# Method: The body weight of mice of the control group (bFGF (+) or (−)) and the groups treated with the testing compound (0.1, 0.3, and 1 mg/kg) at day 1 and day 9 were measured. […]
# [10] = Homo sapiens, KB 3-1, WST-8, average of triplicate
molecule,measurement,setting,value
"Cc1oc(=O)c2c(c1CO)O[C@@H]1C(=C2)CC[C@]2(C)[C@@H](c3ccc4ccncc4c3)CC[C@@H]12 [Compound 11, (3S,3aR,11aS,11bR)-10-(Hydroxymethyl)-3-(isoquinolin-7-yl)-3a,9-dimethyl-1,2,3,3a,4,5,11a,11b-octahydro-7H-cyclopenta[h]pyrano[4,3-b]chromen-7-one]",IC50,"[1]; Homo sapiens, HUVEC",0.02 µM
same,S.I. (selective index: IC50 against KB3-1 cells/IC50 against HUVECs),[1],500
same,IC50,[2]; [10],10 µM
"Cn1ccc2c(c1=O)C=C1CC[C@]3(C)[C@@H](c4ccc5ccncc5c4)CC[C@H]3[C@@H]1O2 [Compound 15, (3S,3aR,11aS,11bR)-3-(Isoquinolin-7-yl)-3a,8-dimethyl-2,3,3a,4,5,8,11a,11b-octahydrocyclopenta[7, 8]chromeno[3,2-c]pyridin-7(1H)-one]",IC50,"[1]; Homo sapiens, HUVEC",0.003 µM
same,S.I. (selective index: IC50 against KB3-1 cells/IC50 against HUVECs),[1],2870
same,fold potency over 13 against HUVECs,[1]; relative to analog 13,3.3 fold
same,IC50,[2]; [10],8.6 µM
CC(=O)NCC1CC(=O)C2=C(C1)O[C@@H]1C(=C2)CC[C@]2(C)[C@@H](c3ccc4ccncc4c3)CC[C@@H]12 (stereo partly shown) [Compound 3],S.I. (selective index: IC50 against KB3-1 cells/IC50 against HUVECs),[3]; ref [21],3150 ^c
same,IC50,[3]; reported value ref [21],0.0026 µM
same,IC50,[4]; reported value ref [21],8.2 µM
"CN(C)[C@H]1CC[C@@]2(C)[C@@H](CC[C@@H]3[C@@H]2CC[C@]2(C)[C@@H](c4ccc5ccncc5c4)CC[C@@H]32)C1 [Compound 28, reference compound]",IC50,"[1]; Homo sapiens, HUVEC",0.56 µM
same,S.I. (selective index: IC50 against KB3-1 cells/IC50 against HUVECs),[1],8.6
same,IC50,[2]; [10],4.8 µM
same,IC50,[5],0.024 µM
"CC(=O)NCc1c2c(c(=O)n(C)c1C)C=C1CC[C@]3(C)[C@@H](c4ccc5ccncc5c4)CC[C@H]3[C@@H]1O2 [Compound 27, N-(((3S,3aR,11aS,11bR)-3-(Isoquinolin-7-yl)-3a,8,9-trimethyl-7-oxo-1,2,3,3a,4,5,7,8,11a,11b-decahydrocyclopenta[7, 8]chromeno[3,2-c]pyridin-10-yl)methyl)acetamide]",IC50,[1],0.01 µM
same,S.I. (selective index: IC50 against KB3-1 cells/IC50 against HUVECs),[1],1340
same,IC50,"[2]; WST-8, average of triplicate",13.4 µM
Cortistatin A [Compound 1],S.I. (selective index: IC50 against KB3-1 cells/IC50 against HUVECs),[3]; ref [8],3900 ^b
same,IC50,[3]; reported value ref [8],0.0018 µM
same,IC50,[4]; reported value ref [8],7 µM
"Cn1cc(CO)c2c(c1=O)C=C1CC[C@]3(C)[C@@H](c4ccc5ccncc5c4)CC[C@H]3[C@@H]1O2 [Compound 19, (3S,3aR,11aS,11bR)-10-(Hydroxymethyl)-3-(isoquinolin-7-yl)-3a,8-dimethyl-2,3,3a,4,5,8,11a,11b-octahydrocyclopenta[7, 8]chromeno[3,2-c]pyridin-7(1H)-one]",Body Weight Day 1,[6]; 0.1 mg/kg oral,25.70 ± 0.58 g
same,Body Weight Day 9,[6]; 0.1 mg/kg oral,26.12 ± 0.58 g
same,Body Weight Day 1,[6]; 0.3 mg/kg oral,25.60 ± 0.64 g
same,Body Weight Day 9,[6]; 0.3 mg/kg oral,26.14 ± 0.62 g
same,Body Weight Day 1,[6]; 1.0 mg/kg oral,26.30 ± 0.41 g
same,Hb Content (hemoglobin µg/isolated Matrigel mg),[7],2.42 ± 0.79 µg/mg
same,"tumor growth inhibition, reduction compared to the control group",[8]; 0.1 mg/kg oral,~ 75%
same,tumor weight reduction,[8]; 1 mg/kg oral,more than 85%
same,ALT (alanine aminotransferase activity),[9],48.4 ± 3.3 IU/L
same,AST (aspartate aminotransferase activity),[9],57.8 ± 4.5 IU/L
same,IC50,[1],0.001 µM
same,S.I. (selective index: IC50 against KB3-1 cells/IC50 against HUVECs),[1],6400
same,IC50,"[2]; WST-8, average of triplicate",6.4 µM
C[C@]12CCC3=CC4=C(CCCC4=O)O[C@H]3[C@@H]1CC[C@@H]2c1ccc2ccncc2c1 [Compound 2],S.I. (selective index: IC50 against KB3-1 cells/IC50 against HUVECs),[3]; ref [21],300 ^c
same,IC50,[3]; reported value ref [21],0.035 µM
same,IC50,[4]; reported value ref [21],10.5 µM
"C[C@]12CCC3=Cc4c(cc[nH]c4=O)O[C@H]3[C@@H]1CC[C@@H]2c1ccc2ccncc2c1 [Compound 13, (3S,3aR,11aS,11bR)-3-(Isoquinolin-7-yl)-3a-methyl-2,3,3a,4,5,8,11a,11b-octahydrocyclopenta[7, 8]chromeno[3,2-c]pyridin-7(1H)-one]",IC50,"[1]; Homo sapiens, HUVEC",0.01 µM
same,S.I. (selective index: IC50 against KB3-1 cells/IC50 against HUVECs),[1],1100
same,fold higher potency than 7 against HUVECs,[1]; relative to analog 7,9 fold
same,IC50,[2]; [10],11 µM
"Cc1cc2c(c(=O)o1)C=C1CC[C@]3(C)[C@@H](c4ccc5ccncc5c4)CC[C@H]3[C@@H]1O2 [Compound 7, (3S,3aR,11aS,11bR)-3-(Isoquinolin-7-yl)-3a,9-dimethyl-1,2,3,3a,4,5,11a,11b-octahydro-7H-cyclopenta[h]pyrano[4,3-b]chromen-7-one]",IC50,"[1]; Homo sapiens, HUVEC",0.09 µM
same,S.I. (selective index: IC50 against KB3-1 cells/IC50 against HUVECs),[1],700
same,IC50,[2]; [10],62.8 µM
